Data as given in article PMC10066720 (Journal of the American Chemical Society, 2022).

Tests used:
Assay type in all cases: biochemical
[1] = target: T1, TEM-1 β-lactamase WT (Escherichia coli, UniProt P62593); assay: AVB covalent inhibition kinetics
[2] = target: T2, TEM-1 β-lactamase A237Y (Escherichia coli, UniProt P62593, A235Y); assay: AVB covalent inhibition kinetics; conditions: A237Y TEM-1
[3] = target: T3, TEM-1 β-lactamase A237Y^e (ester) (Escherichia coli, UniProt P62593, A235Y); assay: AVB covalent inhibition kinetics; conditions: A237Y^e (ester) TEM-1
[4] = system: TEM-1 β-lactamase A237Y^e (ester); assay: AVB covalent inhibition kinetics; conditions: A237Y^e compared with A237Y
[5] = target: T4, TEM-1 β-lactamase A237E (Escherichia coli, UniProt P62593, A235E); assay: AVB covalent inhibition kinetics; conditions: A237E TEM-1
[6] = target: T5, TEM-1 β-lactamase A237R (Escherichia coli, UniProt P62593, A235R); assay: AVB covalent inhibition kinetics; conditions: A237R TEM-1
[7] = target: T6, TEM-1 β-lactamase A237W (Escherichia coli, UniProt P62593, A235W); assay: AVB covalent inhibition kinetics; conditions: A237W TEM-1
[8] = target: T1, TEM-1 β-lactamase WT; assay: PenG acylation kinetics
[9] = target: T2, TEM-1 β-lactamase A237Y; assay: PenG acylation kinetics; conditions: A237Y TEM-1; median [68.25% confidence interval]
[10] = target: T3, TEM-1 β-lactamase A237Y^e (ester); assay: PenG acylation kinetics; conditions: A237Y^e (ester) TEM-1; median [68.25% confidence interval]
[11] = target: T4, TEM-1 β-lactamase A237E; assay: PenG acylation kinetics; conditions: A237E TEM-1; median [68.25% confidence interval]
[12] = target: T5, TEM-1 β-lactamase A237R; assay: PenG acylation kinetics; conditions: A237R TEM-1; median [68.25% confidence interval]
[13] = target: T6, TEM-1 β-lactamase A237W; assay: PenG acylation kinetics; conditions: A237W TEM-1; median [68.25% confidence interval]

`NC(=O)[C@@H]1CC[C@@H]2CN1C(=O)N2OS(=O)(=O)O` [AVB, avibactam] was tested, and the “AVB carbamylation rate, kcbm” value ([1]; WT TEM-1) was 23.1 ± 0.2 s⁻¹, the “AVB recyclization rate, krec” value ([1]; WT TEM-1) was “(2.3 ± 0.3) × 10^−4 s^−1” and the “enhancement of kcbm by the active site electric field” value ([1]; WT TEM·AVB, field −150 MV/cm) was 7.5 orders of magnitude. The “acceleration of recyclization by the active site electric field” value ([1]; WT TEM−AVB, field −97 MV/cm) was 4.9 orders of magnitude, the “AVB carbamylation rate, kcbm” value [2] was 6.19 ± 0.08 s⁻¹ and the “AVB recyclization rate, krec” value [2] was “(1.7 ± 0.3) × 10^−3 s^−1”. The “AVB carbamylation rate, kcbm” value [3] was “(1.8 ± 0.1) × 10^−3 s^−1”, the “AVB recyclization rate, krec” value [3] was “(3.4 ± 0.1) × 10^−7 s^−1” and the “decrease in kcbm, factor” value [4] was 3.5 × 10^3. The “decrease in krec, factor” value [4] was 5.0 × 10^3, the “AVB carbamylation rate, kcbm” value [5] was 4.63 ± 0.23 s⁻¹ and the “AVB recyclization rate, krec” value [5] was “(8.7 ± 1.5) × 10^−5 s^−1”. The “AVB carbamylation rate, kcbm” value [6] was 3.63 ± 0.03 s⁻¹, the “AVB recyclization rate, krec” value [6] was “(6.2 ± 0.9) × 10^−4 s^−1” and the “AVB carbamylation rate, kcbm” value [7] was 3.31 ± 0.05 s⁻¹. For the same molecule, the “AVB recyclization rate, krec” value [7] was “(6.7 ± 1.3) × 10^−4 s^−1”.

For `CC1(C)S[C@@H]2[C@H](NC(=O)Cc3ccccc3)C(=O)N2[C@H]1C(=O)O` [PenG, penicillin G], the “PenG acylation rate, kac” value ([8]; WT TEM-1, median [68.25% confidence interval]) was 4941 [4784, 5086] s^−1, the “enhancement of kac by the active site electric field” value ([8]; WT TEM·PenG, field −171 MV/cm) was 8.6 orders of magnitude and the “PenG acylation rate, kac” value [9] was 2838 [2740, 2940] s^−1. The “PenG acylation rate, kac” value [10] was 86.1 [69.2, 97.0] s^−1, the “PenG acylation rate, kac” value [11] was 5857 [5288, 6012] s^−1 and the “PenG acylation rate, kac” value [12] was 3265 [3137, 3396] s^−1. The “PenG acylation rate, kac” value [13] was 1390 [1366, 1415] s^−1.
